From PMC5013675, “Nucleotide binding by the widespread high-affinity cyclic di-GMP receptor MshEN domain” (Nature Communications, 2016)

Assays:
Format in all cases: binding
VcMshEN L10A/L58A = molecular target: VcMshEN L10A/L58A
VcMshEN G11L = molecular target: VcMshEN G11L
VcMshEN L10A-L54A-L58A = tested on: VcMshEN L10A-L54A-L58A
VcMshEN_N G40I = tested on: VcMshEN_N G40I
VcMshEN_N G11L = tested on: VcMshEN_N G11L
VcMshEN_N L10A = tested on: VcMshEN_N L10A
VcMshEN_N L25A = tested on: VcMshEN_N L25A
VcMshEN_N L25A/L29A = tested on: VcMshEN_N L25A/L29A
VcMshEN_N L54A/L58A = tested on: VcMshEN_N L54A/L58A
VcMshEN_N L10A/L54A/L58A = tested on: VcMshEN_N L10A/L54A/L58A

Nc1nc2c(ncn2[C@@H]2O[C@@H]3CO[P@](=O)(O)O[C@H]4[C@@H](O)[C@H](n5cnc6c(=O)[nH]c(N)nc65)O[C@@H]4CO[P@](=O)(O)O[C@H]3[C@H]2O)c(=O)[nH]1 [c-di-GMP, Cyclic dimeric GMP]
Dissociation constant (KD) (VcMshEN L10A/L58A): cannot bind c-di-GMP | Fold reduction of binding affinity (VcMshEN L10A/L58A): > 100 | Dissociation constant (KD) (VcMshEN G11L): abrogated c-di-GMP binding | c-di-GMP binding in vitro (VcMshEN L10A-L54A-L58A): abrogates the ability of VcMshEN to bind c-di-GMP | Melting temperature Tm, + c-di-GMP (VcMshEN_N G40I): 56 ºC | Melting temperature Tm, + c-di-GMP (VcMshEN_N G11L): 52 ºC | Melting temperature Tm, + c-di-GMP (VcMshEN_N L10A): 56 ºC | Melting temperature Tm, + c-di-GMP (VcMshEN_N L25A): 60 ºC | Melting temperature Tm, + c-di-GMP (VcMshEN_N L25A/L29A): 59 ºC | Tm Difference (VcMshEN_N L25A/L29A): 9 ºC | Melting temperature Tm, + c-di-GMP (VcMshEN_N L54A/L58A): 54 ºC | Melting temperature Tm, + c-di-GMP (VcMshEN_N L10A/L54A/L58A): 53 ºC
